This experiment deals with AsDddY. The experiment in a line: HPLC of acrylate, initial rates, nonlinear Michaelis-Menten fit. The following applies: pH 8.0, 50 °C; 0.5 nM enzyme; DMSP 1-20 mM. Type of experiment: biochemical, Acinetobacter sp. ZS25.

In the case of `C[S+](C)CCC(=O)[O-]` [DMSP, dimethylsulfoniopropionate], the Km is 2600 µM.

Values taken from paper PMC12309256 (Current Research in Microbial Sciences, 2025).
